Results published in US10202326B2, “Polyprenylated phloroglucinol compounds as potent P-glycoprotein inducers” (COUNCIL OF SCIENTIFIC & INDUSTRIAL RESEARCH, priority 2014, dated 2019).
Read-outs that look alike come from different tables or passages of the source.

Legend:
P-glycoprotein (Pgp) = assay: Pgp-induction assay, rhodamine123 (Rh123) cell exclusion method in LS180 cells; format: cell-based; settings: for EC50: 48 h treatment, Rh123 fluorescence; for Pgp induction activity compared to parent natural product: 1b, 1g versus garcinol (1a), 2b versus isogarcinol (2a)
Method: All synthesized compounds were screened for their ability to induce Pgp by using rhodamine123 (Rh123) cell exclusion method. In this method, the Pgp function was evaluated in terms of rhodamine 123 (Rh123) accumulations and efflux. Briefly, the protocol used is as follows: Colorectal LS180 cells Colorectal LS-180 cells [obtained from ECACC (European Collection of Cell Cultures) catalogue number: 87021202; passage number 52] were seeded at a density of 2×10^4 per well of 96 well plate and were allowed to grow for next 24 h. Cells were further incubated with the test compounds, and were diluted to a final concentration of 100 nM and rifampicin (standard) to a final concentration of 10 μM in complete media for 48 h. The final concentration of DMSO was kept at 0.1%. Drugs were removed and cells were incubated with HANKS buffer for 40 minutes before further incubation with HANKS buffer (containing 10 μM of Rh123 as a Pgp substrate) for 90 minutes. At the end of Rh123 treatment cells were washed four times with cold PBS followed by cell lysis for 1 h by using 200 μl of lysis buffer (0.1% Triton X-100 and 0.2 N NaOH). A total of 100 μl of lysate was used for reading fluorescence of Rh123 at 485 nm/529 nm. Samples were normalized by dividing fluorescence of each sample with total protein present in the lysate. […] For EC50 determination, different concentrations of compound were used to treat LS180 cells for 48 h. EC50 was determined by plotting fluorescence of Rh123 against concentration of compound.

in vitro = settings: human
Method: (§1) Compounds proposed in present invention were evaluated for their cytotoxic effect in LS-180 cells using MTT assay. In each well of a 96-well plate, 3×10^3 cells were grown in 100 μL of medium. After 24 h, each test molecules were added to achieve a final concentration of 10 to 0.01 μmol/L, respectively. After 48 h of treatment, 20 μL of 2.5 mg/mL MTT solution in phosphate buffer saline was added to each well. After 48 h, supernatant was removed and formazan crystals were dissolved in 200 μL of DMSO. Absorbance was then measured at 570 nm using an absorbance plate reader. Data are expressed as the percentage of viable cells in treated relative to non-treated conditions.

[1] = Cytotoxicity in LS-180 cells using MTT assay; settings: human
Method: as §1

[2] = LS-180 cells, read-out: Pgp induction EC50
[3] = LS180 cells, values in text, read-out: EC50 for p-glycoprotein induction activity

Row | Structure (SMILES) | EC50 (P-glycoprotein (Pgp); [2]) [nM] | IC50 at 48 h (in vitro) [µM] | EC50 (P-glycoprotein (Pgp); [3]) [nM] | Pgp induction activity compared to parent natural product (P-glycoprotein (Pgp); LS180 cells) | IC50 at 48 h [1] [µM]
1 | C=C(C)[C@@H](CC=C(C)C)C[C@@]12C[C@@H](CC=C(C)C)C(C)(C)[C@@](CC=C(C)C)(C(=O)C(C(=O)c3ccc(O)c(O)c3)=C1O)C2=O [Compound 1a, Garcinol, reference compound] | 12 | 20 | – | – | –
2 | C=C(C)C(CC=C(C)C)CC12CC(CC=C(C)C)C(C)(C)C(CC=C(C)C)(C(=O)C(C(=O)c3ccc(OC(=O)CCC)c(OC(=O)CCC)c3)=C1O)C2=O (centres unmarked) [Compound 1b, 3′,4′-Di-(O-Butanoyl)-Garcinol] | – | – | 8.9 | better | –
3 | C=C(C)C(CC=C(C)C)CC12CC(CC=C(C)C)C(C)(C)C(CC=C(C)C)(C(=O)C(C(=O)c3ccc(OCc4ccccc4[N+](=O)[O-])c(OCc4ccccc4[N+](=O)[O-])c3)=C1O)C2=O (centres unmarked) [Compound 1g, 3′,4′-di-[O-(2″-nitro-benzyl)]-garcinol] | – | – | 6.8 | – | > 100
4 | CC(C)=CC[C@H]1C[C@@]23C[C@@H](CC=C(C)C)C(C)(C)[C@@](CC=C(C)C)(C(=O)C(C(=O)c4ccc(O)c(O)c4)=C2OC1(C)C)C3=O [Compound 2a, Isogarcinol, reference compound] | 7 | – | – | – | 11
5 | CC(C)=CCOc1ccc(C(=O)C2=C3OC(C)(C)C(CC=C(C)C)CC34CC(CC=C(C)C)C(C)(C)C(CC=C(C)C)(C2=O)C4=O)cc1OCC=C(C)C (centres unmarked) [Compound 2b, 3′,4′-di-(O-prenyl)-isogarcinol] | – | – | 2.9 | better | 40
